Assay results from patent US6812239B2, “Method of identification of inhibitors of PDE1C and methods of treatment of diabetes” (Albert Einstein College of Medicine of Yeshiva University, priority 1999, dated 2004).
Several values for one entry are separate records, joined by “and”; a condition that tells them apart may be missing. Equal values may be shown once. Entries after “also recorded” stand apart in the source; their conditions may differ.

Legend:
PDE1C of βTC3 cells = PDE1C of βTC3 cells (Mus musculus, UniProt Q64338); assay: cAMP PDE activity of mono-Q FPLC peak I (PDE1C) of βTC3 cells; assay type: biochemical; details: for IC50: 1 μM cAMP substrate, average ± standard deviation, read-out: IC50 values Peak I PDE1
Method: (§1) Mono-Q-FPLC fractionation of PDE activities. Cells were scraped and homogenized in a buffer containing 50 mM Tris 7.5, 250 mM sucrose, 5 mM MgCl2, 0.2 μg/ml aprotinin, leupeptin and pepstatin, and 1 mM 4-(2-aminoethyl)benzenesulfonyl fluoride. Following a 30 min 150,000 g centrifugation, the supernatant was loaded onto a Pharmacia Mono-Q anion exchange column and PDE activities were fractionated by FPLC along a two step salt gradient. Column buffers were (A) 50 mM Tris 7.5 and (B) 50 mM Tris 7.5, 0.5 M NaCl. The gradient consisted of a 10 min increase to 0.2 M NaCl (20% B), and a 90 min increase to 0.5 M NaCl (100% B). One ml fractions were collected.
(§2) PDE assays and kinetic measurements. PDE assays were performed in duplicate as described (40). Analysis and plotting of kinetic data was performed by using the computer program kaleidagraph. The contributions of the high and low affinities cGMP PDEs of peak I to total PDE activity of this peak at a given substrate concentration were calculated using the formula: […]

βTC3 cells = assay: Insulin release from βTC3 cells by radioimmunoassay; assay type: cell-based, Mus musculus; details: 16.7 mM glucose; for Effect on glucose induced insulin secretion (in words): 2 hr incubation; for Insulin secretion, % of the cellular insulin content / Insulin secretion, % of the insulin content of the cells: 2 hr
Method: The cultured cells are starved for glucose in Hepes buffered Krebs-Ringer solution for 1 hr. Subsequently, 16.7 mM glucose and the potential phosphodiesterase inhibitors are added to the cells in Hepes buffered Krebs-Ringer solution and the cells are incubated for 2 additional hr. Each condition is assayed in triplicate. Insulin content of the supernatant after centrifugation, and of the cells after acid extraction, is determined by a radioimmunoassay. Control samples are treated with no potential inhibitor compound or, for control or calibration purposes, with compounds that will inhibit other PDE isozymes but that are known to lack PDE1C inhibitory activity or, for examining glucose-independent effects of potential inhibitor compound alone.
Cell Culture, treatments and measurements of insulin secretion. βTC3 cells were cultured as described and early passages were maintained (D'Ambra, R., Surana, M., Efrat, S., Starr, R. G., and Fleischer, N. (1990) Endocrinology 126, 2815-2822). For measurements of insulin secretion cells were plated onto a 12-well culture dishes 3-4 days, and refed 16 hr, prior to the assay. On the experiment day, cells were washed in Hepes-buffered Krebs-Ringer solution, and incubated in this glucose-free solution for 1 hr. Subsequently, 16.7 mM glucose and, when relevant, PDE inhibitors were added to the cells in Hepes-buffered Krebs-Ringer solution and the cells were incubated for 2 additional hr. Each condition was assayed in triplicates. Insulin content of the supernatant after centrifugation, and of the cells after acid extraction, was determined by a radioimmunoassay as described (D'Ambra, R., Surana, M., Efrat, S., Starr, R. G., and Fleischer, N. (1990) Endocrinology 126, 2815-2822).
Cyclic nucleotide phosphodiesterase inhibitors that augment insulin secretion were identified using used βTC3 insulinoma cells. For measurements of insulin secretion cells were plated onto a 12-well culture dishes 3-4 days, and refed 16 hr, prior to the assay. On the experiment day, cells were washed in Hepes-buffered Krebs-Ringer solution, and incubated in this glucose-free solution for 1 hour. Subsequently, 16.7 mM glucose and, when relevant, phosphodiesterase inhibitors were added to the cells in Hepes-buffered Krebs-Ringer solution and the cells were incubated for 2 additional hours. Each condition was assayed in triplicates. Insulin content of the supernatant after centrifugation, and of the cells after acid extraction, was determined by a radioimmunoassay.

PDE1C = details: unlike PDE1A and 1B; cited from earlier work
[1] = tested on: cGMP PDE activities of peak I (PDE1C and cGMP-specific PDE); assay: cGMP PDE activity of mono-Q FPLC peak I of βTC3 cells; assay type: biochemical, Mus musculus; details: 50 μM 8 MM-IBMX
Method: as §1, §2

[2] = tested on: soluble PDE activities of βTC3 cells; assay: Overall PDE activity in inhibitor-treated βTC3 cells; assay type: cell-based; details: Mus musculus
Text: An estimate for the ability of the inhibitors to permeate and inhibit PDEs within cells was provided by measurements of overall PDE activity in inhibitor-treated cells. These measurements provide an underestimate of the in vivo effects of the inhibitors due to inhibitor dilution, degradation, and release of inhibitor bound to PDEs, that occur during extraction, and are more pronounced in particulate fractions.

PDE3 = details: Beavo 1988; read-out: IC50 for inhibition of PDE3; cited from earlier work
[3] = tested on: glucose induced insulin secretion; details: Parker et al. 1995; cited from earlier work
Peak III PDE4 = assay: cAMP PDE activity of mono-Q FPLC peak III of βTC3 cells; assay type: biochemical, Mus musculus; details: 2.5 μM rolipram, substrate cAMP 1 μM
Method: as §1, §2

involved PDE families = details: cited from earlier work

PDE1C of βTC3 cells, sequence (Q64338 151-528 limits assumed): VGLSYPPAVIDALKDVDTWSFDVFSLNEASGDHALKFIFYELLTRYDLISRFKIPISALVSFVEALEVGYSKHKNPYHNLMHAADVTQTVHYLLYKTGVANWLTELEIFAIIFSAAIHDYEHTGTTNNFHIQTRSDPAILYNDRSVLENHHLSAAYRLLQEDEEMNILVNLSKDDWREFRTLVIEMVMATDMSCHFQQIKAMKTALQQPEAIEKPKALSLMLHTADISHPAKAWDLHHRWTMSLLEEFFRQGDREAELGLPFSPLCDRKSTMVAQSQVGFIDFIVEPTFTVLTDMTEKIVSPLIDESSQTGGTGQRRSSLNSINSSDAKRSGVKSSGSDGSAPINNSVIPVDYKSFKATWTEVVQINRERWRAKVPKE

CCCOc1ccccc1-c1nc2nn[nH]c2c(=O)[nH]1 [Zaprinast, zaprinast]
IC50 (PDE1C of βTC3 cells): 4.5 µM | Effect on glucose induced insulin secretion (in words) (βTC3 cells): enhanced glucose induced secretion; also recorded: partial stimulatory effects | Insulin secretion, % of the cellular insulin content (βTC3 cells; inhibitor 0.5 mM): 6.2% | Sensitivity of PDE1C to inhibitor (in words) (PDE1C): sensitive

COCc1nc2c([nH]1)c(=O)n(C)c(=O)n2CC(C)C [8 MM-IBMX, 8-methoxymethyl-1-methyl-3-(2-methylpropyl)xanthine]
IC50 (PDE1C of βTC3 cells): 7.5 µM | inhibition at 50 µM (PDE1C of βTC3 cells; 50 μM 8 MM-IBMX, substrate cAMP 0.5 μM): 80% | Inhibition by 8 MM-IBMX, peak I ([1]; substrate cGMP 0.1 μM): 82% | Inhibition by 8 MM-IBMX, peak I ([1]; substrate cGMP 10 μM): 57% | Effect on glucose induced insulin secretion (in words) (βTC3 cells): strongly augmented insulin secretion; also recorded: dose dependent augmentation of insulin secretion | Effect on glucose induced insulin secretion (in words) (βTC3 cells; listed as 8-methoxymethyl-isobutylmethylxanthine): dose dependent augmentation of insulin secretion | Insulin secretion, % of the cellular insulin content (βTC3 cells; inhibitor 0.5 mM): 17.2% | Insulin secretion, % of the insulin content of the cells (βTC3 cells; inhibitor […]): 9.3% | inhibition at 500 µM ([2]; inhibitor applied to cells at 0.5 mM, read-out: Inhibition of soluble cGMP PDE activities in inhibitor-treated cells): 30%

COc1cc2c(cc1OC)-c1c/c(=N\c3c(C)cc(C)cc3C)n(C)c(=O)n1CC2 [trequinsin]
Effect on glucose induced insulin secretion (in words) (βTC3 cells): no effect; also recorded: did not | Insulin secretion, % of the cellular insulin content (βTC3 cells; inhibitor 30 nM): 7%

Cc1[nH]c(=O)c(C#N)cc1-c1ccncc1 [Milrinone, 1,6-dihydro-2-methyl-6-oxo-(3,4′-bipyridine)-5-carbonitrile]
IC50 (PDE1C of βTC3 cells): > 100 µM | Effect on glucose induced insulin secretion (in words) (βTC3 cells): did not affect insulin secretion | IC50 (PDE3): 0.3 µM

CCCCOc1cc(CC2CNC(=O)N2)ccc1OC (stereo not shown) [RO20-1724, 4-(3-butoxy-4-methoxybenzyl)-2-imidazolidinone]
Effect on glucose induced insulin secretion (in words) (βTC3 cells): limited effect; also recorded: did not | Insulin secretion, % of the cellular insulin content (βTC3 cells; inhibitor 0.2 mM): 9.6%

CCOC(=O)C1=C[C@]2(CC)CCCN3CCc4c(n1c1ccccc41)[C@@H]32 [Vinpocetine, eburnamenine-14-carboxylic acid ethyl ester]
IC50 (PDE1C of βTC3 cells): > 100 µM | Sensitivity of PDE1C to inhibitor (in words) (PDE1C): resistant | Stimulation of glucose induced insulin secretion (in words) [3]: ineffective simulator of glucose induced insulin secretion

COc1ccc(C2CNC(=O)C2)cc1OC1CCCC1 (stereo not shown) [Rolipram, 4-[3-(cyclopentyloxy)-4-methoxyphenyl]-2-pyrrolidinone]
IC50 (PDE1C of βTC3 cells): > 100 µM | Inhibition by Rolipram, peak III (Peak III PDE4): 97% | Inhibition by Rolipram, peak III (Peak III PDE4; listed as rolipram): abolished | Insulin secretion, % of the insulin content of the cells (βTC3 cells; over 10^4 fold increase in concentrations, up to 15 μM): 7.9-10.7% | inhibition at 15 µM ([2]; inhibitor applied to cells at 15 μM, read-out: Inhibition of soluble cAMP PDE activities in inhibitor-treated cells): 37%

CC(C)Cn1c(=O)n(C)c(=O)c2[nH]cnc21 [IBMX, 1-methyl-3-isobutylxanthine]
Insulin secretion, % of the cellular insulin content (βTC3 cells; inhibitor 0.5 mM): 8% and 18% | Insulin secretion, % of the cellular insulin content (βTC3 cells; inhibitor 0.5 mM, listed as isobutylmethylxanthine): 15.2% | IC50 values for the involved PDE families (involved PDE families): low μM range
